In this assay the target is Anti-alpha galactosyl IgG antibody. The experiment in a line: ELISA assay: streptavidin-captured biotin compound, binding of anti-alpha galactosyl IgG antibody. Details: species or system human. The following applies: geometric mean with standard error in brackets; streptavidin plate, anti-alpha galactosyl IgG 0.5 μg/mL; read-out: Concentration at half maximal binding.

As for `CC(=O)N[C@H]1[C@H](OCCCNC(=O)COc2cc(OCC(=O)NCCCO[C@@H]3O[C@H](CO)[C@@H](O[C@@H]4O[C@H](CO)[C@H](O)[C@H](O[C@H]5O[C@H](CO)[C@H](O)[C@H](O)[C@H]5O)[C@H]4O)[C@H](O)[C@H]3NC(C)=O)cc(-c3cc(C(=O)NCCNC(=O)CCCC[C@@H]4SC[C@@H]5NC(=O)N[C@@H]54)cc(-c4cc(OCC(=O)NCCCO[C@@H]5O[C@H](CO)[C@@H](O[C@@H]6O[C@H](CO)[C@H](O)[C@H](O[C@H]7O[C@H](CO)[C@H](O)[C@H](O)[C@H]7O)[C@H]6O)[C@H](O)[C@H]5NC(C)=O)cc(OCC(=O)NCCCO[C@@H]5O[C@H](CO)[C@@H](O[C@@H]6O[C@H](CO)[C@H](O)[C@H](O[C@H]7O[C@H](CO)[C@H](O)[C@H](O)[C@H]7O)[C@H]6O)[C@H](O)[C@H]5NC(C)=O)c4)c3)c2)O[C@H](CO)[C@@H](O[C@@H]2O[C@H](CO)[C@H](O)[C@H](O[C@H]3O[C@H](CO)[C@H](O)[C@H](O)[C@H]3O)[C@H]2O)[C@@H]1O` [Example 62], the EC50 came out at 20.7 nM. Then `CC(=O)NC1C(OCCCNC(=O)CCOCCOCCOCCOCCNC(=O)COc2ccc(-c3cc(OCC(=O)NCCOCCOCCOCCOCCC(=O)NCCCOC4OC(CO)C(OC5OC(CO)C(O)C(OC6OC(CO)C(O)C(O)C6O)C5O)C(O)C4NC(C)=O)cc(C(=O)NCCNC(=O)CCOCCOCCOCCOCCOCCOCCOCCOCCOCCOCCOCCOCCNC(=O)CCCCC4SCC5NC(=O)NC54)c3)cc2)OC(CO)C(OC2OC(CO)C(O)C(OC3OC(CO)C(O)C(O)C3O)C2O)C1O` (stereo not drawn) [Example 53], with 34.9 nM. Take `CC(=O)NC1C(OCCCNC(=O)CCOCCOCCOCCOCCNC(=O)COc2cc(OCC(=O)NCCOCCOCCOCCOCCC(=O)NCCCOC3OC(CO)C(OC4OC(CO)C(O)C(OC5OC(CO)C(O)C(O)C5O)C4O)C(O)C3NC(C)=O)cc(C(=O)NCCNC(=O)CCOCCOCCOCCOCCOCCOCCOCCOCCOCCOCCOCCOCCNC(=O)CCCCC3SCC4NC(=O)NC43)c2)OC(CO)C(OC2OC(CO)C(O)C(OC3OC(CO)C(O)C(O)C3O)C2O)C1O` (stereo not drawn) [Example 21]: the EC50 came to 14.8 nM. The figure for `CC(=O)NC1C(OCCCNC(=O)CCOCCOCCOCCOCCNC(=O)COc2cccc(C(=O)NCCNC(=O)CCOCCOCCOCCOCCOCCOCCOCCOCCOCCOCCOCCOCCNC(=O)CCCCC3SCC4NC(=O)NC43)c2)OC(CO)C(OC2OC(CO)C(O)C(OC3OC(CO)C(O)C(O)C3O)C2O)C1O` (stereo not drawn) [Example 19] is 11.8 nM; for `CC(=O)N[C@H]1[C@H](OCCCNCc2cccc(C(=O)NCCNC(=O)CCCC[C@@H]3SC[C@@H]4NC(=O)N[C@@H]43)c2)O[C@H](CO)[C@@H](O[C@@H]2O[C@H](CO)[C@H](O)[C@H](O[C@H]3O[C@H](CO)[C@H](O)[C@H](O)[C@H]3O)[C@H]2O)[C@@H]1O` [Example 17, 3-(((3-(((2R,3R,4R,5S,6R)-3-Acetamido-5-(((2S,3R,4S,5S,6R)-3,5-dihydroxy-6-(hydroxymethyl)-4-(((2R,3R,4S,5R,6R)-3,4,5-trihydroxy-6-(hydroxymethyl)tetrahydro-2H-pyran-2-yl)oxy)tetrahydro-2H-pyran-2-yl)oxy)-4-hydroxy-6-(hydroxymethyl)tetrahydro-2H-pyran-2-yl)oxy)propyl)amino)methyl)-N-(2-(5-((3aS,4S,6aR)-2-oxohexahydro-1H-thieno[3,4-d]imidazol-4-yl)pentanamido)ethyl)benzamide] it is 17.7 nM; for `CC(=O)N[C@H]1[C@H](OCCCNC(=O)COc2cc(OCC(=O)NCCCO[C@@H]3O[C@H](CO)[C@@H](O[C@@H]4O[C@H](CO)[C@H](O)[C@H](O[C@H]5O[C@H](CO)[C@H](O)[C@H](O)[C@H]5O)[C@H]4O)[C@H](O)[C@H]3NC(C)=O)cc(-c3cccc(-c4cccc(C(=O)NCCNC(=O)CCCC[C@@H]5SC[C@@H]6NC(=O)N[C@@H]65)c4)c3)c2)O[C@H](CO)[C@@H](O[C@@H]2O[C@H](CO)[C@H](O)[C@H](O[C@H]3O[C@H](CO)[C@H](O)[C@H](O)[C@H]3O)[C@H]2O)[C@@H]1O` [Example 61] it is 29.9 nM.

These data come from patent US10953100B2, “Compounds and therapeutic uses thereof” (priority 2015, dated 2021).
